“And” between values parts separate entries of the source, which are not always exact repeats. Identical values can stand only once. Like-named read-outs stand apart in the source and are kept apart here.
Columns and labels:
[1] = test system: SARS-CoV-2 S protein; format: in vivo, ACE2 transgenic mice; conditions: 0.5 mg NIP-V; lungs 24 h after infection; versus PBS+SARS-CoV-2
[2] = test system: SARS-CoV-2 genomic RNA; assay: qPCR of the load of SARS-CoV-2 genomic RNA in spleen, liver and lung tissues; format: in vivo, ACE2 transgenic mice; conditions: for SARS-CoV-2 genomic RNA: individual mice n = 8
[3] = test system: SARS-CoV-2; format: in vivo, ACE2 transgenic mice; conditions: for SARS-CoV-2 copies/μL: lung tissue, 0.5 mg NIP-V injected 1 h before intranasal 1×10^5 TCID50, individual mice n = 8
[4] = test system: SARS-CoV-2 N protein; conditions: 0.5 mg NIP-V; lungs 24 h after infection; versus PBS+SARS-CoV-2
[5] = test system: Ifnb1 mRNA; format: in vivo, ACE2 transgenic mice; conditions: for Ifnb1 mRNA: relative to unstimulated mice, individual mice n = 8
[6] = test system: IFN-β; format: in vivo, ACE2 transgenic mice; conditions: for IFN-β in serum: 0.5 mg NIP-V, individual mice n = 8
[7] = test system: SARS-CoV-2; format: in vivo, ACE2 transgenic mice; conditions: lungs 24 h after infection
[8] = test system: MAVS oligomerization; format: cell-based; conditions: HEK 293T, Myc-NP transfected; 50 μM or 100 μM NIP-V 1 h before SeV stimulation for 8 h
[9] = test system: Isg56 mRNA; format: in vivo, ACE2 transgenic mice; conditions: for Isg56 mRNA: relative to unstimulated mice, individual mice n = 8
[10] = NIP-V treatment versus PBS-treated group

IHKNLLIVQDKFPPRRRQRRKKRG [NIP-V, interfering peptide targeting amino acids 346 to 357 of the SARS-CoV-2 N protein dimerization domain, fused with HIV-TAT]
SARS-CoV-2 S protein signal in lung tissue (immunohistochemistry) [1]: much lower than that of the PBS+SARS-CoV-2 treated mice | SARS-CoV-2 genomic RNA ([2]; Liver, 16 h): 2.09E+02 Fold and 1.42E+02 Fold and 8.55E+01 Fold and 1.08E+02 Fold and 1.69E+02 Fold and 6.80E+02 Fold and 8.67E+01 Fold and 2.38E+02 Fold | SARS-CoV-2 genomic RNA ([2]; Liver, 24 h): 6.41E+01 Fold and 4.17E+01 Fold and 4.33E+01 Fold and 1.70E+02 Fold and 5.83E+01 Fold and 5.13E+01 Fold and 3.93E+01 Fold and 2.38E+01 Fold | SARS-CoV-2 genomic RNA ([2]; Lung, 16 h): 5.93E+03 Fold and 4.43E+03 Fold and 2.73E+03 Fold and 1.61E+04 Fold and 1.86E+04 Fold and 1.48E+04 Fold and 8.10E+03 Fold and 3.62E+03 Fold | SARS-CoV-2 genomic RNA ([2]; Lung, 24 h): 4.74E+03 Fold and 3.19E+03 Fold and 3.72E+03 Fold and 1.23E+03 Fold and 1.56E+03 Fold and 1.26E+03 Fold and 1.49E+04 Fold and 0.00E+00 Fold | SARS-CoV-2 genomic RNA ([2]; Spleen, 16 h): 1.66E+03 Fold and 1.40E+03 Fold and 1.37E+03 Fold and 4.78E+02 Fold and 1.60E+03 Fold and 8.65E+02 Fold and 1.33E+03 Fold and 1.15E+03 Fold | SARS-CoV-2 genomic RNA ([2]; Spleen, 24 h): 4.18E+02 Fold and 3.11E+02 Fold and 2.38E+02 Fold and 1.85E+02 Fold and 4.43E+02 Fold and 1.35E+02 Fold and 2.56E+02 Fold and 7.20E+02 Fold | proliferation of SARS-CoV-2 in tissues (qPCR, in words) ([2]; spleen, liver and lung, NIP-V treatment versus PBS-treated group): inhibit the proliferation of SARS-CoV-2 | SARS-CoV-2 viral load in lung tissue (in words) ([3]; NIP-V-treated groups (2 and 4) versus PBS-treated groups, 16 h and 24 h): greatly reduced | SARS-CoV-2 copies/μL ([3]; 16 h after infection): 30 copies/μL and 76 copies/μL and 0 copies/μL (3×) and 2484 copies/μL and 131 copies/μL and 726 copies/μL | SARS-CoV-2 copies/μL ([3]; 24 h after infection): 3 copies/μL and 0 copies/μL (7×) | SARS-CoV-2 N protein signal in lung tissue (immunofluorescence) [4]: weaker N protein signals can be detected | Ifnb1 mRNA ([5]; Liver, 16 h): 52.55 Fold and 86.45 Fold and 85.91 Fold and 111.15 Fold and 85.02 Fold and 132.00 Fold and 68.88 Fold and 81.36 Fold | Ifnb1 mRNA ([5]; Liver, 24 h): 22.59 Fold and 79.02 Fold and 29.53 Fold and 33.69 Fold and 42.93 Fold and 49.66 Fold and 31.43 Fold and 45.92 Fold | Ifnb1 mRNA ([5]; Lung, 16 h): 186.37 Fold and 302.75 Fold and 202.16 Fold and 145.17 Fold and 113.93 Fold and 133.62 Fold and 259.88 Fold and 148.33 Fold | Ifnb1 mRNA ([5]; Lung, 24 h): 82.49 Fold and 165.42 Fold and 112.99 Fold and 126.62 Fold and 84.22 Fold and 36.61 Fold and 22.54 Fold and 46.19 Fold | expression of Ifnb1 mRNA in spleen, liver and lung tissues (in words) [5, 10]: increase the expression | Ifnb1 mRNA ([5]; Spleen, 16 h): 87.27 Fold and 42.74 Fold and 73.72 Fold and 58.30 Fold and 67.91 Fold and 98.19 Fold and 64.75 Fold and 70.43 Fold | Ifnb1 mRNA ([5]; Spleen, 24 h): 45.66 Fold and 36.50 Fold and 51.66 Fold and 47.70 Fold and 40.76 Fold and 71.38 Fold and 47.81 Fold and 45.86 Fold | content of IFN-β in serum (in words) ([6]; NIP-V-treated groups versus PBS-treated groups, 16 h and 24 h): significantly higher than that in the PBS-treated group | IFN-β in serum ([6]; 16 h after SARS-CoV-2 infection): 52.44 pg/mL and 46.60 pg/mL and 50.21 pg/mL and 75.33 pg/mL and 37.97 pg/mL and 52.98 pg/mL and 68.93 pg/mL and 48.49 pg/mL | IFN-β in serum ([6]; 24 h after SARS-CoV-2 infection): 38.29 pg/mL and 38.61 pg/mL and 34.78 pg/mL and 30.95 pg/mL and 44.88 pg/mL and 37.02 pg/mL and 35.42 pg/mL and 45.20 pg/mL | lung lesions caused by SARS-CoV-2 infection (HE staining) ([7]; 0.5 mg NIP-V 1 h before infection, versus PBS+SARS-CoV-2): significantly reduce the lung lesions | thickening of alveolar septa (HE staining) ([7]; 0.5 mg NIP-V): not significant | occurrence of hemagglutination and inflammatory cell infiltration (HE staining) ([7]; 0.5 mg NIP-V, versus PBS+SARS-CoV-2 group): significantly lower than that in the PBS+SARS-CoV-2 group | MAVS oligomerization inhibited by SARS-CoV-2 N protein (SDD-PAGE) [8]: restore the MAVS oligomerization in a dose-dependent manner | Isg56 mRNA ([9]; Liver, 16 h): 30.49 Fold and 18.13 Fold and 27.16 Fold and 42.29 Fold and 27.58 Fold and 35.86 Fold and 25.80 Fold and 29.09 Fold | Isg56 mRNA ([9]; Liver, 24 h): 14.51 Fold and 10.01 Fold and 7.41 Fold and 10.47 Fold and 12.89 Fold and 12.03 Fold and 9.46 Fold and 5.61 Fold | Isg56 mRNA ([9]; Lung, 16 h): 92.65 Fold and 109.88 Fold and 67.64 Fold and 46.59 Fold and 99.03 Fold and 85.62 Fold and 91.13 Fold and 26.35 Fold | Isg56 mRNA ([9]; Lung, 24 h): 232.32 Fold and 263.20 Fold and 152.15 Fold and 131.60 Fold and 144.01 Fold and 188.71 Fold and 205.07 Fold and 374.81 Fold | expression of Isg56 mRNA in spleen, liver and lung tissues (in words) [9, 10]: increase the expression | Isg56 mRNA ([9]; Spleen, 16 h): 121.34 Fold and 87.49 Fold and 110.12 Fold and 85.19 Fold and 94.54 Fold and 59.17 Fold and 76.17 Fold and 82.88 Fold | Isg56 mRNA ([9]; Spleen, 24 h): 73.25 Fold and 63.36 Fold and 55.41 Fold and 62.68 Fold and 45.16 Fold and 32.90 Fold and 56.97 Fold and 36.50 Fold

From US20230212229A1 (priority 2021, published 2023)
